Data published in paper PMC12587601 (Antimicrobial Agents and Chemotherapy, 2025).
Marks after values point to notes of the source that are not given here.

What was measured:
[1] = Covariate effects forest plot of simulated ritonavir AUC0–24 h (1,000 simulations accounting for parameter uncertainty); set-up: species or system African children with HIV; settings: reference a child of 26 kg receiving 100 mg of ritonavir in combination with darunavir
Method: (§1) Covariates were maintained if they reached statistical significance of P < 0.05 on forward addition and P < 0.01 on backward elimination. […] The performance of intermediate and final models was assessed both numerically and using goodness of fit plots, and by simulation-based diagnostics such as visual predictive checks (VPC) ([23]). Parameter precision was evaluated using the sampling importance resampling (SIR) procedure ([24]). The effect of covariates on the simulated area under the curve from 0 to 24 hours (AUC0–24 h) for all study arms was visualized using a forest plot based on 1,000 simulations accounting for parameter uncertainty ([25]).

[2] = set-up: method as in PMID 19210693; settings: cross-over pharmacokinetic study; cited from earlier work
[3] = Population pharmacokinetic analysis of ritonavir plasma concentrations (CHAPAS-4 pharmacokinetic sub-study, week 6, NONMEM)
Method: The trial included children with HIV from Zambia, Uganda, and Zimbabwe, aged 3–15 years, weighing at least 14 kg (Table 1), receiving abacavir-, zidovudine-, or stavudine-containing NRTI backbone and failing on ART according to WHO criteria (confirmed viral load >1,000 copies/mL after adherence counseling or CD4 criteria for failure or clinical criteria for failure). A nested pharmacokinetic sub-study was conducted within the CHAPAS-4 trial. […] Written informed consent was given by parents/caregivers, and local and national ethics committees approved the main trial and nested pharmacokinetic sub-study.
The dose depended on the companion PI (Table 2). NRTI backbones were also dosed according to weight bands. Children were followed up for 96 weeks. Pharmacokinetic blood samples were collected after week 6 of study treatment. Samples were collected at pre-dose, 0.5 (only for those on TAF/FTC), 1, 2, 4, 6, 8, 12, and 24 hours post-dose, and plasma was stored at −80°C. On the day of pharmacokinetic blood sampling, study drugs were administered under direct observation, with food (breakfast with 5% fat, ~250 kCal). All non-ART co-medications were taken at least 2 hours after study drugs.
R v4.2.2 via RStudio (Posit Public Benefit Corporation) and Pirana v2.9.9 (Certara, Inc.) were utilized to visualize and process the data, and Perl Speaks NONMEM v5.2.6 (Department of Pharmacy, Uppsala University) was used for automation of the analysis processes ([17]).
We tested one- and two-compartment disposition models and several absorption models (sequential zero- and/or first-order, with lag time or transit compartments). Simple first-order elimination as well as first-pass and saturable elimination through a liver compartment were tested. We included between-subject variability (BSV) on disposition parameters and between-occasion variability (BOV) on absorption parameters, assuming a log-normal distribution. Combined additive and proportional error models to describe residual unexplained variability were evaluated. Samples with undetectable drug concentrations were treated as censored at the limit of detection (LOD), which was imputed as 30% of the LLOQ ([19]), and handled using a modified version of the M6 method by Beal ([20]). The undetectable (i.e., censored) values were imputed to half of the LOD value (LOD/2), and the additive error was inflated by LOD/2. If a series of undetectable values was present, the value closest to the peak concentration was retained, while all trailing values were excluded from the model fit but retained for simulation-based diagnostics.
as §1

**Q.** With `CC(C)c1nc(CN(C)C(=O)N[C@H](C(=O)N[C@@H](Cc2ccccc2)C[C@H](O)[C@H](Cc2ccccc2)NC(=O)OCc2cncs2)C(C)C)cs1` [ritonavir] as the compound, how does the “Increase of ritonavir AUC0–24 h by atazanavir” value [1] read?
**A.** 99.0%

**Q.** What about the “Lowering of plasma AUC of ritonavir by darunavir” value [2] of the same compound?
**A.** 14%

**Q.** What about the “Observed Cmax of ritonavir, median (interquartile range)” value (from here on “Observed Cmax of ritonavir, median”) ([3]; atazanavir/ritonavir once daily, weight band 14–19.9 kg, ATV/r 200/75 mg, 3 out of 12 children got 100 mg ritonavir instead of 75 mg) of the same compound?
**A.** 2.68 (2.33–3.25)^a mg/L

**Q.** What about the “Observed Cmax of ritonavir, median” value ([3]; darunavir/ritonavir once daily, weight band 20–24.9 kg, DRV/r 600/100 mg) of the same compound?
**A.** 1.27 (1.10–1.52) mg/L

**Q.** What about the “Observed Cmax of ritonavir, median” value ([3]; darunavir/ritonavir once daily, weight band ≥35 kg, DRV/r 800/100 mg) of the same compound?
**A.** 0.81 (0.53–1.04) mg/L

**Q.** And the “Between-occasion variability, Bioavailability” value ([3]; human, in vivo)?
**A.** 40.1 (35.2–46.0) %

**Q.** What about the “Between-occasion variability, First-order absorption rate constant” value ([3]; human, in vivo) of the same compound?
**A.** 114 (90.0–141) %

**Q.** What about the “Between-occasion variability, Lag time” value ([3]; human, in vivo) of the same compound?
**A.** 62.0 (54.5–70.2) %

**Q.** What about the “Between-occasion variability, Zero-order rate of absorption” value ([3]; human, in vivo) of the same compound?
**A.** 52.5 (42.7–63.0) %

**Q.** What about the “Between-subject variability, Clearance” value ([3]; human, in vivo) of the same compound?
**A.** 13.1 (10.2–15.8) %

**Q.** And the “Extra variability for unobserved doses” value ([3]; human, in vivo)?
**A.** 2.14 (1.53–2.42) fold change

**Q.** What about the “First-order absorption rate constant, typical value (95% confidence interval)” value ([3]; human, in vivo) of the same compound?
**A.** 1.16 (0.893–1.89) 1/h

**Q.** What about the “Lag time, typical value (95% confidence interval)” value ([3]; human, in vivo) of the same compound?
**A.** 0.981 (0.934–1.06) h

**Q.** What about the “Zero-order absorption duration, typical value (95% confidence interval)” value ([3]; human, in vivo) of the same compound?
**A.** 2.45 (2.05–2.80) h

**Q.** What about the “Central volume of distribution, typical value (95% confidence interval)” value ([3]; human, in vivo, po) of the same compound?
**A.** 54.5 (48.9–60.4) L

**Q.** And the “Clearance, typical value (95% confidence interval)” value ([3]; human, in vivo, po)?
**A.** 10.5 (9.22–11.9) L/h

**Q.** And the Cmax ([3]; human, in vivo, po)?
**A.** 1320 ng/mL

**Q.** And the “Intercompartmental clearance, typical value (95% confidence interval)” value ([3]; human, in vivo, po)?
**A.** 1.19 (0.851–1.58) L/h

**Q.** And the “Peripheral volume of distribution, typical value (95% confidence interval)” value ([3]; human, in vivo, po)?
**A.** 134 (38.8–330) L

**Q.** What about the Cmax ([3]; human, in vivo, po, 100 mg, Observed Cmax of ritonavir, median (interquartile range)) of the same compound?
**A.** 2760 ng/mL

**Q.** And the “Model-based AUC0–24 h of ritonavir, median (interquartile range)” value ([3]; lopinavir/ritonavir twice daily, weight band 20–24.9 kg, daily dose LPV/r 400/100 mg)?
**A.** 10.3 (7.30–12.8) mg·h/L

**Q.** What about the “Observed Cmax of ritonavir, median” value ([3]; lopinavir/ritonavir twice daily, weight band ≥35 kg, daily dose LPV/r 800/200 mg) of the same compound?
**A.** 0.80 (0.47–1.42) mg/L
